Like-named read-outs stand apart in the source and are kept apart here.

One data set has as its target T1, human furin protease (Homo sapiens, UniProt P09958).
T1 construct: purchased BPS Bioscience 78040
Nature of the data set: Furin protease assay. The class given is biochemical.

In the next data set the target is SARS-CoV-2 PLpro (Severe acute respiratory syndrome coronavirus 2, UniProt P0DTD1). Nature of the data set: Papain-like protease (PLpro) assay. Particulars: for IC50: dose response curve, read-out: IC50 against SARS-CoV-2 PLpro. It is filed as biochemical.
Data set [1] relates to SARS-CoV-2 strain NRC-03-nhCoV. Nature of the data set: microbe, parasite or virus in culture. It is filed as cell-based.
A further data set in a line: in vitro. Particulars: human.
For another data set, the target named is SARS-CoV-2 Mpro (Severe acute respiratory syndrome coronavirus 2, UniProt P0DTD1). In words: Main protease (Mpro) assay, 3CL Protease assay kit. It is filed as biochemical.
[2] abbreviates: read-out: IC50 against human furin protease.

T1 sequence (P09958 108-794): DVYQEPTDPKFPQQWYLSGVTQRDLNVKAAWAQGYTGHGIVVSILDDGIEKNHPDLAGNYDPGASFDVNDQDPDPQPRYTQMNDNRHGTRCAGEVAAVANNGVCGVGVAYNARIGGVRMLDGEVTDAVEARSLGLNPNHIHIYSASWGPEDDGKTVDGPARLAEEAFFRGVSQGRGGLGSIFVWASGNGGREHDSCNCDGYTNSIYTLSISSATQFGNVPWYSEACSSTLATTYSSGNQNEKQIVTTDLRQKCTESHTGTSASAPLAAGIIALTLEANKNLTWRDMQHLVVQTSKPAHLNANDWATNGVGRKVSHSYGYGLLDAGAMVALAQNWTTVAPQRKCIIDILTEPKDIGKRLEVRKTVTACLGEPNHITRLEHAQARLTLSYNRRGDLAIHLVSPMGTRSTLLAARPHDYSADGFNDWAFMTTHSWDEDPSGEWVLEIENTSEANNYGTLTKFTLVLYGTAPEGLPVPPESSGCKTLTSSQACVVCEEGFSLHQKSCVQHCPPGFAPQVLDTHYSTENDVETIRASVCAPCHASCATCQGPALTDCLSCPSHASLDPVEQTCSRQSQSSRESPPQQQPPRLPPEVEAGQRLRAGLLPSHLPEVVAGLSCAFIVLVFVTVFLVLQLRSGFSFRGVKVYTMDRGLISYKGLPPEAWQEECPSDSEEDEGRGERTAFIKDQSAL

One may read the IC50 as the concentration that inhibits the measured activity by half. One may read the inhibition as the share of the control response that was lost under treatment. For `COc1cc(C(NC2=NC(=O)C(CC(=O)Nc3ccc(C(=O)O)cc3)S2)c2c(O)[nH]c(=O)[nH]c2=O)ccc1O` (stereo not shown) [Compound 7], the 50% inhibitory concentration (IC50) at human furin protease (setting [2]) is 290 nM; at SARS-CoV-2 PLpro it was 85 nM; in data set [1] (Severe acute respiratory syndrome coronavirus 2, Vero C1008, 72 h, read-out: IC50 inhibition activity against SARS-CoV-2), 770 nM; in “in vitro” it was 1670 nM. For the same compound, the “inhibition activity against SARS-CoV-2 PLpro” value against SARS-CoV-2 PLpro (screening, mean±SEM of 3 replicas) was determined as 56.4%. Further, the inhibition at 100 µg/mL on SARS-CoV-2 Mpro (read-out: inhibition activity against Mpro enzyme (inhibition percentage)) was 31 ± 2%.

Consider `N=C(N/N=C/c1ccncc1)c1nonc1NCNc1nonc1C(=N)N/N=C/c1ccncc1` [Compound 13M], for which the IC50 at human furin protease was 86200 nM; in data set [1] (Severe acute respiratory syndrome coronavirus 2, Vero C1008, compound 13M, FIG. 10A, read-out: antiviral activity in vitro IC50), ~8 µg/mL; on SARS-CoV-2 Mpro (compound 13M, FIG. 10B-10C, read-out: IC50 against Mpro enzyme (converted)), 13400 nM.

Turning to `N=C(N/N=C/c1ccccc1O)c1nonc1NCNc1nonc1C(=N)N/N=C/c1ccccc1O` [Compound 13], the concentration for half-maximal inhibition (IC50) on human furin protease (setting [2]) was 290 nM; on SARS-CoV-2 PLpro it was 63 nM; in data set [1] (Severe acute respiratory syndrome coronavirus 2, Vero C1008, Vero-E6 cells, strain NRC-03-nhCoV, 72 h, read-out: IC50 inhibition activity against SARS-CoV-2), 110 nM. Moreover, half-maximal inhibition in the data set “in vitro” (IC50 at 24 h) was put at 410 nM.

Source of the values: patent US11608331B2 (priority 2021, dated 2023).
